Source: patent US8278333B2, “Crystals of benzoxadiazole derivative” (Astellas Pharma Inc., priority 2006, dated 2012)
Entries after “also recorded” stand apart in the source; their conditions may differ.

Experiments:
[1] = Hygroscopicity test (VTI SGA-100, 25° C., 5 to 95% relative humidity); format: physicochemical; conditions: for hygroscopicity (in words): 5 to 95% relative humidity
Protocol: The measurement was carried out using “DVS” or “SGA-100”, under the conditions of temperature: 25° C., measurement range: 5 to 95% relative humidity, and measurement interval: 5% relative humidity.
For the measurement of hygroscopicity, “VTI SGA-100” was used under the conditions of temperature: 25° C., measurement range: 5 to 95% relative humidity, and measurement interval: 5% relative humidity.

[2] = Photo stability test (impurity by HPLC after 1.2 million lux-hours); format: physicochemical; conditions: after preservation under 1.2 million lux-hours of integrated luminance, 25° C.
Protocol: The amount of impurity was measured through HPLC using a preserved sample, under 1.2 million lux-hours (temperature: 25° C.) of integrated luminance, using a light stability testing device LTL-200D3J-15.
The amount of impurity was measured through HPLC using a preserved sample, under 1.2 million lux-hours (temperature: 25° C.) of integrated luminance, using a light stability testing device LTL-200D3J-15. • HPLC Conditions • Device: LC1100 (LC-5) manufactured by Agilent • Mobile phase: A: 0.01 mol/L, NaClO4 buffer (pH 2.5), B: MeCN • Flow rate: 0.2 mL/min • Column: Inertsil ODS-3 3 um (2.1 mm×100 mm) • Column temperature: 40° C. • Gradient condition: Bconc. 20 to 90% (0 to 18 min), 90% (18 to 23 min), 20% (23.1 to 33 min) • Injection volume: 1 μL • Autosampler temperature: 5° C. • Detection wavelength: 254 nm

hygroscopicity (in words) [1]	Impurity Increase Amount (%) [2] [%]	Impurity Increase Amount (%) ([2]; listed as α-form Crystal)	Impurity Increase Amount (%) ([2]; listed as β-form Crystal)	Impurity Increase Amount (%) ([2]; listed as γ-form Crystal)	relative humidity from which a drastic increase in weight is shown [1]	relative humidity from which hygroscopicity gradually starts [1]	moisture retained ([1]; at a relative humidity of about 95%)	Impurity Increase Amount (%) ([2]; listed as δ-form Crystal)	Structure (SMILES)
no hygroscopicity	0.0		0.0						CC(C)c1nnc(-c2ccc(-c3ccccc3)nc2)n1-c1cccc2nonc12 [β-form crystal, 4-[3-isopropyl-5-(6-phenyl-3-pyridyl)-4H-1,2,4-triazol-4-yl]-2,1,3-benzoxadiazole]
no hygroscopicity	0.0			0.0					CC(C)c1nnc(-c2ccc(-c3ccccc3)nc2)n1-c1cccc2nonc12 [γ-form crystal, 4-[3-isopropyl-5-(6-phenyl-3-pyridyl)-1,2,4-triazol-4-yl]-2,1,3-benzoxadiazole]
	1.0				about 80%	about 50%	approximately 2%	1.0	CC(C)c1nnc(-c2ccc(-c3ccccc3)nc2)n1-c1cccc2nonc12 [δ-form crystal, 4-[3-isopropyl-5-(6-phenyl-3-pyridyl)-4H-1,2,4-triazol-4-yl]-2,1,3-benzoxadiazole, reference compound]

Structure (SMILES)	hygroscopicity (in words) [1]	Impurity Increase Amount (%) [2] [%]	Impurity Increase Amount (%) ([2]; listed as α-form Crystal)	Impurity Increase Amount (%) ([2]; listed as β-form Crystal)	Impurity Increase Amount (%) ([2]; listed as γ-form Crystal)	relative humidity from which a drastic increase in weight is shown [1]	relative humidity from which hygroscopicity gradually starts [1]	moisture retained ([1]; at a relative humidity of about 95%)	Impurity Increase Amount (%) ([2]; listed as δ-form Crystal)
CC(C)c1nnc(-c2ccc(-c3ccccc3)nc2)n1-c1cccc2nonc12 [α-form crystal, 4-[3-isopropyl-5-(6-phenyl-3-pyridyl)-4H-1,2,4-triazol-4-yl]-2,1,3-benzoxadiazole]	less than that of the known δ-form crystal; also recorded: relatively low hygroscopicity as compared to the known δ-form crystal	0.0	0.0						
